From patent EP4782453A1 (Beyang Therapeutics Co., Ltd., priority 2023, dated 2025) come the findings set out here.

Where two headings read alike, the source gives them in different places.

For experiment [1], the system named is MV-4-11 (carrying MLL-AF4). In words: Inhibition of proliferation of human tumor cells (Alamar Blue, 7 days), MV-4-11. The following applies: Homo sapiens, MV4-11, 168 h, MV-4-11 cells (carrying MLL-AF4), method calls the value GI50. It counts as cell-based. The text has this: Experimental Example 2: Evaluation of Inhibitory Activity of Compounds Against Proliferation of Human Tumor Cells
• Human acute lymphoblastic leukemia cells MV-4-11, purchased from American Type Culture Collection, Catalog Number: CRL-9591; • Human acute myeloid leukemia cells MOLM-13, purchased from COBIOER BIOSCIENCES CO., LTD, Catalog Number: CBP60678; • Human acute myeloid leukemia cells KG-1a, purchased from American Type Culture Collection, Catalog Number: CCL-246.1; • Inverted Microscope, purchased from Olympus Tokyo; • Countess™ Automated Cell Counter, purchased from Invitrogen, Model: C10281; and • Multilabel Reader, purchased from Bio-Tek, Model: Synergy HT.
MV-4-11 cells were cultured in an IMDM medium containing 10% fetal bovine serum, KG-a cells were cultured in an IMDM medium containing 20% fetal bovine serum, or MOLM-13 cells were cultured in an RPMI-1640 medium containing 20% fetal bovine serum, each supplemented with 100 U·mL^-1 penicillin and 100 µg·mL^-1 streptomycin. These cells were cultured at 37°C with 5% CO2. The suspensions of individual cell lines were prepared in their respective media and seeded into 96-well plates at a density of 4,000 cells/well for MV-4-11 and MOLM-13 cells, or 3,000 cells/well for KG-1a cells. On the day of the experiment, a compound stock solution was diluted in a 3-fold or 4-fold gradient using DMSO. Each gradient-diluted stock solution was then further diluted 250-fold with a complete medium to prepare a series of working solutions at different concentrations. Subsequently, 100 µL of working solution (containing a 2-fold concentration series of the test compound) was added to each well, with duplicate wells set up for each concentration.
Seven days after compound addition (on Day 7), an Alamar Blue assay reagent (MCE, HY-111391 / CS-0040317) was added to measure the fluorescence intensity in each well. Wells containing the cells in the growth medium supplemented with 0.1% DMSO (Day 7) served as high-read control wells. The readouts from the wells containing the cells in the growth medium supplemented with 0.1% DMSO on the day of compound addition (Day 0) served as low-reading control well. GraphPad Prism software was used to calculate the concentration required to inhibit 50% of cell proliferation (GI50), which serves as a cell proliferation inhibition activity index.
Background: Alamar Blue is a resazurin reagent that responds to reducing activity.

Experiment [2] has as its system MOLM-13 (carrying MLL-AF9). In words: Inhibition of proliferation of human tumor cells (Alamar Blue, 7 days), MOLM-13. It counts as cell-based. The following applies: MOLM-13 cells (carrying MLL-AF9), method calls the value GI50. Summed up: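 GI50 from Alamar Blue fluorescence after 7-day compound exposure, duplicate wells, using Day-0 and Day-7 0.1% DMSO wells as low and high controls. MV-4-11 in IMDM/10% FBS and MOLM-13 in RPMI-1640/20% FBS at 4,000 cells/well; KG-1a in IMDM/20% FBS at 3,000 cells/well.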

The target in experiment [3] is T1, Menin-MLL (Homo sapiens, UniProt O00255).
T1 construct: His-Menin (M1-L615 end); purchased BIORTUS BP9210
T1 sequence (O00255 1-615 isoform O00255-1): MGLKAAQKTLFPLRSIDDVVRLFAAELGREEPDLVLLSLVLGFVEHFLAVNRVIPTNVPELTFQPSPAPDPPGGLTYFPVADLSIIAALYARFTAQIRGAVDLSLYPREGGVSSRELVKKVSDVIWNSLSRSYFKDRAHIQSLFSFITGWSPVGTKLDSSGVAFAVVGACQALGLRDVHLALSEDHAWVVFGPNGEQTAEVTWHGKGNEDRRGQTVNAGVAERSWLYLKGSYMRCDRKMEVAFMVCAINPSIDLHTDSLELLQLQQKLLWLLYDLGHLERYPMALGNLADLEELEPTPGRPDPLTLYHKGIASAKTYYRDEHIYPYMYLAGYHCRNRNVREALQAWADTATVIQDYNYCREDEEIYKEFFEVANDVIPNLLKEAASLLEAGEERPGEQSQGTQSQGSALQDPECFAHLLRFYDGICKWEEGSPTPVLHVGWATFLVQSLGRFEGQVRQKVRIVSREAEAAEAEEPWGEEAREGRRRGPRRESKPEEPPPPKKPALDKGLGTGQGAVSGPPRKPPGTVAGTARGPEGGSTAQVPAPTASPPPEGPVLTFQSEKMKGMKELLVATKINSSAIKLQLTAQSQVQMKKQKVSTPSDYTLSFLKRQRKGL
In words: Inhibitory activity against Menin-MLL binding (fluorescence polarization). The following applies: 150 nM His-Menin, 15 nM FITC-MLL, 25°C for 60 min. The method in brief: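 Fluorescence polarization competition: compound and 150 nM His-tagged menin (residues M1-L615) sit 15 min at 25 °C in pH 7.5 HEPES buffer with NaCl, DTT and BSA; 15 nM FITC-labelled MLL peptide then binds for 60 min. IC50 fitted sigmoidally from mP values, duplicate wells.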
A general note: In fluorescence polarisation assays a small probe gives low polarisation when free and higher when bound to something large.

Where [4] appears, read: fluorescence polarization, read-out: Menin-MLL IC50.
Setting [5] is: Menin-MLL IC50, fluorescence polarization.

For the compound `Cc1nc(F)c2c(-c3ccc(F)cc3C(=O)N3[C@H](C)COC[C@H]3C)cc(C3CN(CC4CCN(C(=O)C5COC5)CC4)C3)cn12` [Example 216], the IC50 came out at 22 nM in experiment [1]; 32 nM in experiment [2] (Homo sapiens, 168 h); 23 nM in experiment [3] (setting [4]).
The corresponding values for `COCC(=O)N1CCC(CN2CC(c3cc(-c4ccc(F)cc4C(=O)N4[C@H](C)COC[C@H]4C)c4c(F)nc(C)n4c3)C2)CC1` [Example 224] are 14 nM, 36 nM and 26 nM.
For `Cc1nc(F)c2c(-c3ccc(F)cc3C(=O)N3CCOC[C@H]3C)cc(C3CN(CC4CCN(C(=O)C(F)F)CC4)C3)cn12` [Example 268] the same measures were 36 nM, 96 nM and 32.5 nM.
On to `CCS(=O)(=O)N[C@H]1CC[C@H](CN2CC(c3cc(-c4ccc(F)cc4C(=O)N(CC(F)F)C(C)C)c4c(F)nc(C)n4c3)C2)CC1` [Example 132, N-(2,2-difluoroethyl)-5-fluoro-2-[1-fluoro-3-methyl-6-(1-{[(1r,4r)-4-ethanesulfonamidocyclohexyl]methyl}-azacyclobutan-3-yl)imidazo[1,5-a]pyridin-8-yl]-N-(isopropyl)benzamide], for which the IC50 in experiment [1] stood at 17 nM; in experiment [2] (Homo sapiens, MOLM-13, 168 h), 16 nM; in experiment [3] (setting [5]), 6 nM.
As for `Cc1nc(F)c2c(-c3ccc(F)cc3C(=O)N3CCOC[C@H]3C)cc(C3CN(CC4CCN(C(=O)CC(C)C)CC4)C3)cn12` [Example 271], the IC50 in experiment [1] was 12 nM; in experiment [2] (Homo sapiens, 168 h) it was 33 nM; in experiment [3] (setting [4]), 27 nM.
The corresponding values for `Cc1nc(F)c2c(-c3ccc(F)cc3C(=O)N(CC(F)F)C(C)C)cc(C3CN(C(=O)[C@@H]4CCCCN4)C3)cn12` [Example 131, N-(2,2-difluoroethyl)-5-fluoro-2-(1-fluoro-3-methyl-6-{1-[(2S)-piperidin-2-carbonyl]azacyclobutan-3-yl}imidazo[1,5-a]pyridin-8-yl)-N-(isopropyl)benzamide] are 50 nM, 40 nM and 15.5 nM.
The corresponding values for `CCCC(=O)N1CCC([C@H](C)N2CC(c3cc(-c4ccc(F)cc4C(=O)N4CCOC[C@H]4C)c4c(F)nc(C)n4c3)C2)CC1` [Example 294] are 4.9 nM, 46 nM and 9.5 nM.
Turning to `CNCCCC(C(C)C)N1CC(c2cc(-c3ccc(F)cc3C(=O)N(CC(F)F)C(C)C)c3cnccn23)C1` (stereo not shown) [Example 146, N-(2,2-difluoroethyl)-5-fluoro-2-(6-{1-[2-methyl-6-(methylamino)hexan-3-yl]azacyclobutan-3-yl}pyrrolo[1,2-a]pyrazin-8-yl)-N-(isopropyl)benzamide], the half-inhibitory concentration (IC50) amounted to 89 nM in experiment [1] and 46 nM in experiment [3] (setting [4]).
Consider `CCN(C(=O)c1cc(F)ccc1-c1cc(C2CN([C@H](CN3CCN(C(CO)CO)CC3)C(C)C)C2)cn2c(C)ncc12)C(C)C` [Example 435], for which the IC50 in experiment [2] (Homo sapiens, 168 h) is 26 nM; in experiment [3] (setting [4]) it was 4.9 nM.
In the case of `CCN(C(=O)c1cc(F)ccc1-c1cc(C2CN([C@H](CCCN3CCC(NS(=O)(=O)CC)CC3)C(C)C)C2)cn2c(C)ncc12)C(C)C` [Example 408, 2-(6-{1-[(3R)-6-(4-ethanesulfonamidopiperidin-1-yl)-2-methylhexan-3-yl]azacyclobutan-3-yl}-3-methylimidazo[1,5-a]pyridin-8-yl)-N-ethyl-5-fluoro-N-(isopropyl)benzamide], the half-maximal inhibitory concentration (IC50) in experiment [2] (Homo sapiens, 168 h) was 4.2 nM; in experiment [3] (setting [4]), 1.7 nM.
For `CCN(C(=O)c1cc(F)ccc1-c1cc(C2CN([C@H](CCCN3CCOC[C@H]3CO)C(C)C)C2)cn2c(C)ncc12)C(C)C` [Example 453] the same measures were 22 nM and 5.3 nM.
The corresponding values for `CCN1CCN(CCC[C@H](C(C)C)N2CC(c3cc(-c4ccc(F)cc4C(=O)N(CC)C(C)C)c4cnc(C)n4c3)C2)CC1` [Example 377] are 1.7 nM and 2 nM.
For `Cc1cncc2c(-c3ccc(F)cc3C(=O)N(C)C(C)C)cc(CC3CN([C@H](CCCN4CCN(CCO)CC4)C(C)C)C3)n12` [Example 477-1, 5-fluoro-2-[6-({1-[(3R)-6-[4-(2-hydroxylethyl)piperazin-1-yl]-2-methylhexan-3-yl]azacyclobutan-3-yl}methyl)-4-methylpyrrolo[1,2-a]pyrazin-8-yl]-N-methyl-N-(isopropyl)benzamide] the same measures were 10 nM and 1.1 nM.
Turning to `CCN(C(=O)c1cc(F)ccc1-c1cc(C2CN([C@H](CCCN3CCN[C@H](COC)C3)C(C)C)C2)cn2c(C)ncc12)C(C)C` [Example 503], the IC50 is 8.5 nM in experiment [2] (Homo sapiens, 168 h) and 1 nM in experiment [3] (setting [4]).
On to `CCN(C(=O)c1cc(F)ccc1-c1cc(C2CN(C(CCCN3CCNC(CC#N)C3)C(C)C)C2)cn2c(C)ncc12)C(C)C` (stereo not shown) [Example 499], for which the IC50 in experiment [2] was 29 nM; in experiment [3] (setting [5]) it was 2.1 nM.
Turning to `CCN(C(=O)c1cc(F)ccc1-c1cc(C2CN([C@H](CN3CCN(C[C@@H](O)CO)CC3)C(C)C)C2)cc2c1cnn2C)C(C)C` [Example 434], the IC50 came out at 32 nM in experiment [2] (Homo sapiens, MOLM-13, 168 h) and 8.8 nM in experiment [3] (setting [5]).
As for `CCN(C(=O)c1cc(F)ccc1-c1cc(C2CN([C@H](CCCN3CCC(NS(=O)(=O)CC)CC3)C(C)C)C2)cc2c1cnn2C)C(C)C` [Example 411], the IC50 in experiment [2] (Homo sapiens, 168 h) was determined as 12 nM; in experiment [3] (setting [4]), 2.7 nM.
For `Cc1nc(F)c2c(-c3ccc(F)cc3C(=O)N3CCOC[C@H]3C)cc(C3CN([C@H](CCCN4CCN(S(C)(=O)=O)CC4)C(C)C)C3)cn12` [Example 365] the same measures were 14 nM and 8.5 nM.
For `Cc1nc(F)c2c(-c3ccc(F)cc3C(=O)N3CCOC[C@H]3C)cc(C3CN([C@H](CCCN4C5CC4CN(C)C5)C(C)C)C3)cn12` [Example 384] the same measures were 4.1 nM and 2.7 nM.
The corresponding values for `CCN(C(=O)c1cc(F)ccc1-c1cc(C2CN([C@H](CCCN3C4CCC3CN(C(C)=O)C4)C(C)C)C2)cn2c(C)ncc12)C(C)C` [Example 378, 2-(6-{1-[(3R)-6-{3-acetyl-3,8-diazabicyclo[3.2.1]oct-8-yl}-2-methylhexan-3-yl]azacyclobutan-3-yl}-3-methylimidazo[1,5-a]pyridin-8-yl)-N-ethyl-5-fluoro-N-(isopropyl)benzamide] are 5.8 nM and 2.8 nM.
As for `CCN1CCN(CCC[C@H](C(C)C)N2CC(c3cc(-c4ccc(F)cc4C(=O)N4CCOC[C@H]4C)c4cnn(C)c4c3)C2)CC1` [Example 359], the IC50 in experiment [2] (Homo sapiens, 168 h) came to 66 nM; in experiment [3] (setting [4]), 6 nM.

Usually IC50 stands for the point on the concentration scale where inhibition reaches its midpoint.
